Measured values as given in US12714669B2, “Liposomal formulations comprising AT1 receptor blockers and uses thereof” (YISSUM RESEARCH DEVELOPMENT COMPANY OF THE HEBREW …, priority 2020, dated 2026).
“Also recorded” adds a separate entry of the source. Like-named read-outs stand apart in the source and are kept apart here.

Key:
AT1 receptor [1] = target: T1, AT1 receptor (Homo sapiens, UniProt P30556); experiment: IC50 / affinity to AT1 receptor (stated, not measured in the patent); format: binding; settings: corresponding to the nM values; read-out: IC50 to AT1 receptor, as mass concentration (converted)
T1 sequence (P30556 1-359): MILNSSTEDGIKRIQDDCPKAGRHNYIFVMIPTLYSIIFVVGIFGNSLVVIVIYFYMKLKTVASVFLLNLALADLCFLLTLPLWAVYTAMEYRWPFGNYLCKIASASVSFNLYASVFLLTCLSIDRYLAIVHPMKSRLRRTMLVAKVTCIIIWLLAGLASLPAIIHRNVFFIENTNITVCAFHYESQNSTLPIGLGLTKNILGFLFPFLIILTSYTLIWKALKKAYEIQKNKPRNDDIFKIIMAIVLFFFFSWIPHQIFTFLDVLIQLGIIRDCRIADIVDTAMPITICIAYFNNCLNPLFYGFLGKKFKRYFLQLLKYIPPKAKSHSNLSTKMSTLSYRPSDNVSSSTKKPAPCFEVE

AT1 receptor [2] = target: T1, AT1 receptor; settings: cited from earlier work
[3] = aqueous media; compared with valsartan; cited from earlier work
[4] = test system: mouse mean blood pressure (MBP); experiment: Liposomal valsartan activity on mice blood pressure (CODA monitor, tail); format: in vivo
Method: The development of liposomal ARB's aimed at delivering the drugs to the tumor and exert their activity there while avoiding the systemic effect of the drug on blood pressure. […] MBP was measured using CODA monitor device allowing measurement of blood pressure in mouse tail.
Four mice were tested before drug administration and 2, 24 and 48 h after drug administration. For each mouse, at least 3 measurements (and up to 10) were recorded for each time point.

SMILES	IC50 (AT1 receptor [1]) [nM]	IC50 (AT1 receptor [2]) [nM]	affinity for AT1 receptor (AT1 receptor [2]; versus losartan, telmisartan, valsartan (Bhuiyan 2013))	solubility [3]	lowering of MBP ([4]; 25 mg/kg, 2 h after administration)	MBP at t=24 h ([4]; 25 mg/kg, 24 h after administration)	effect on MBP 2 h after injection ([4]; 2 h after injection)	MBP after administration ([4]; reduction from 105 mmHg) [mmHg]
CCOc1nc2cccc(C(=O)O)c2n1Cc1ccc(-c2ccccc2-c2nnn[nH]2)cc1 [Candesartan, 2-ethoxy-3-[[4-[2-(2H-tetrazol-5-yl)phenyl]phenyl]methyl]benzimidazole-4-carboxylic acid]	2.95	3	highest affinity	very limited; also recorded: not soluble	–	–	–	–
CCCCC(=O)N(Cc1ccc(-c2ccccc2-c2nnn[nH]2)cc1)[C@H](C(=O)O)C(C)C [Valsartan, (2S)-3-methyl-2-[pentanoyl-[[4-[2-(2H-tetrazol-5-yl)phenyl]phenyl]methyl]amino]butanoic acid]	–	–	–	–	~ 35 units	returned to baseline	reduction in MBP	70
